According to patent US10172951B2, “Dendrimer based nanodevices for therapeutic and imaging purposes” (priority 2009, dated 2019):
Entries after “also recorded” stand apart in the source; their conditions may differ.

What was measured:
[1] = cited from earlier work
[2] = Stability (oxidation) of free NAC and free GSH in PBS; assay type: physicochemical; settings: over 17 hours
Experimental: (§1) The conjugates were also analyzed in the absence of GSH to verify the stability of the disulfide linkage at physiological pH. […] The extent of the release of drug from both dendrimer-NAC conjugates was also analyzed at plasma and intracellular GSH concentrations. The conjugates and the GSH in required amounts were added to PBS solution, and the solution was analyzed at various time intervals by HPLC for up to 17 hours. UV absorbance peak areas were used to determine the concentrations of each of the species in the solution, based on appropriate calibration curves.

BV-2 cells [3] = assay: NO release assay (nitrite, Griess), PEG-NAC conjugates; assay type: cell-based, mouse; settings: highest concentration 5 mM
Experimental: (A) BV-2 cells (passage 22) were co-treated with 100 ng/mL of LPS and the indicated concentration of NAC, PEG-NAC conjugate 1 and its corresponding PEG for 72 hours. (B) BV-2 cells were co-treated with 100 ng/mL of LPS and the indicated concentration of NAC, PEG-NAC conjugate 2 its corresponding PEG for 72 hours. Nitrite in culture medium was measured using Griess reagent system.
Production of NO was assayed by measuring the levels of nitrite, the stable NO metabolite, in supernatant. Accumulation of nitrite in supernatant was determined by colorimetric assay with Griess reagent system, which uses sulfanilamide and N-(1-Naphthyl)-ethylene diamine. 100 μL of the supernatant was incubated with 50 μL of Griess reagent 1 (sulfanilamide) and 50 μL of Griess reagent 2 N-(1-Naphthyl)-ethylenediamine for 10 min at room temperature. The absorbance at 540 nm was then measured, and nitrite concentration was determined using a curve calibrated with nitrite standards.

BV-2 cells [4] = assay: ROS assay (H2O2, Amplex Red), PEG-NAC conjugates; assay type: cell-based, mouse; settings: highest concentration 5 mM
Experimental: (A) BV-2 cells (passage 22) were co-treated with 100 ng/mL of LPS and the indicated concentration of NAC, PEG-NAC conjugate 1 and its corresponding PEG for 72 hours. (B) BV-2 cells were co-treated with 100 ng/mL of LPS and the indicated concentration of NAC, PEG-NAC conjugate 2 and its corresponding PEG for 72 hours. The amount of ROS released into the media was measured using Amplex Red.
(§2) H2O2 released from BV-2 cells was measured using 10-acetyl-3,7-dihydroxyphenoxazine (Amplex Red), following the manufacturer's instructions. Briefly, the procedure for cell culture and drug treatment was the same as described in previous section. The supernatant was mixed with 0.05 U/mL of horseradish peroxidase and 1 μM of Amplex Red in 96-well plates. After 30 min incubation, the fluorescence intensity was measured using spectrofluorometry. Excitation and emission wavelengths were 530 nm and 590 nm.

[5] = cited from earlier work; remark: listed apart in the source
BV-2 cells [6] = assay: NO release (nitrite) assay in LPS-activated BV-2 cells (Example 18); assay type: cell-based, mouse; settings: for Nitrite reduction (%): 72 hours LPS following 3 hours treatment; for reduction of nitrite release: 24 hours LPS following 3 hours pre-treatment
Experimental: (§3) BV-2 cells (passage 16) were seeded in 24 well plates at 10^5/mL/well and incubated for 24 hours. The medium was removed, and the cells were exposed to 100 ng/mL of LPS and varying concentrations of PAMAM-(COOH)46-(NAC)18 conjugate in 500 μL of serum free medium for 3 hours. The medium was removed again, and 500 μL of fresh serum free medium containing 100 ng/mL of LPS was added and incubated for 24 hours and 72 hours. Control treatment with varying concentrations of free NAC, positive control with 100 ng/mL of LPS induction, but negative control without any LPS induction and treatment were also studied. The culture medium was collected at specific time intervals of 24 hours and 72 hours, and spun at 1500 rpm for 5 min. The supernatant was stored at −80° C. for further assays.
Production of NO was assayed by measuring the levels of nitrite, the stable NO metabolite, in the culture medium. Accumulation of nitrite in the medium was determined by colorimetric assay with Griess reagent system, which uses sulfanilamide and N-(1-Naphthyl)-ethylene diamine. From the treated cells in the medium, 100 μL of the supernatant was incubated with 50 μL of Griess reagent 1 (sulfanilamide) and 50 μL of Griess reagent 2 N-(1-Naphthyl)-ethylenediamine for 10 min at room temperature. The absorbance at 540 nm was then measured, and nitrite concentration was determined using a calibration curve prepared using nitrite standards.

BV-2 cells [7] = assay: ROS assay, percent reduction in H2O2 in LPS-treated BV-2 cells (Example 19); assay type: cell-based, mouse; settings: co-treatment with LPS
Experimental: Cells were treated with lipopolysaccharide (LPS) to induce the production of ROS. The cells were treated with LPS (100 ng/ml) and either NAC, PAMAM-S—S-NAC, or free PAMAM-NH2 dendrimers at appropriate concentrations to study the efficacy of the conjugates for reducing the ROS concentrations. In order to quantify the efficacy of conjugates, H2O2 released from BV-2 cells (ROS) was measured using the Amplex Red Hydrogen Peroxide/Peroxidase Assay Kit using previously established procedures.

[8] = system: Mouse microglial cell line (BV-2); assay: In vitro cytotoxicity, MTT assay (Example 19); settings: 0.5, 2 and 8 mM
Description: In vitro cytotoxicity of the conjugate, dendrimer and NAC, at conditions similar to that used in the efficacy assays, was investigated by MTT assay. Mouse microglial cell line (BV-2) was obtained from Children's Hospital of Michigan Cell Culture Facility. These cells were used because the eventual in vivo applications seek to target microglial cells that become activated as a result of neuroinflammation.
The lipopolysaccharide (LPS) was used to activate the cells for the ROS assay. For the cytotoxicity study, the LPS treatment was continuous for 24 hours. For both groups, the LPS concentration used was 100 ng/ml. Three concentrations of NAC were studied: 0.5 mM, 2 mM and 8 mM. For the conjugate assays, the concentrations used corresponded to equivalent NAC doses of the free drug treatment groups. Similarly, the dendrimer assays were run by using dendrimer concentrations that were equivalent to conjugate treatments. Control groups included cells receiving only LPS and no other treatment and cells with no LPS or other treatment. The proportion of viable cells in the treated group was compared to that of negative control. The cell viability is expressed as mean±SD of three samples per group, and assessed by t-test.

microglial cells = assay: Cytotoxicity assay in microglial cells (Example 18); assay type: cell-based, mouse; settings: concentrations tested in vitro
BV-2 cells [9] = assay: ROS assay in LPS-activated BV-2 cells, 3 hours pre-treatment (Example 18); assay type: cell-based, mouse; settings: for H2O2 reduction (%): 72 hours LPS following 3 hours treatment; for effect on ROS production: 24 hours LPS following 3 hours pre-treatment, 0.5-8 mM
Experimental: as §3
as §2, with “instructions (Alexandre et al., 2006; Min et al., 2003). The” for “instructions. Briefly, the”, “nm respectively.” for “nm.”

BV-2 cells [10] = assay: TNF-α ELISA in LPS-activated BV-2 cells (Example 18); assay type: cell-based, mouse; settings: 72 hours LPS following 3 hours treatment
Experimental: as §3
The procedure for cell culture and drug treatment was the same as described in previous section. TNF-α secretion was measured using an ELISA kit according to the manufacturer's instructions. In brief, 50 μL of supernatant from each sample was added in 96-well ELISA plates. Biotinylated antibody reagent was applied to each well and the plate was incubated at room temperature for 2 hours. After washing the plate with PBS-Tween 20, diluted streptavidin-HRP was added, and the plate was incubated at room temperature for 30 min. After washing the plate, the premixed TMB substrate solution was added. The plate was developed in the dark for 30 min, and read at 450 nm using a microplate reader. The concentration of TNF-α was calculated using murine rTNF-α as standard.

[11] = GSH triggered NAC release from PAMAM dendrimer-NAC conjugates (RP-HPLC); assay type: physicochemical
Experimental: Appropriate amounts of PAMAM-S—S-NAC conjugate were dissolved in release media (Citrate or PBS buffers) to form a solution of 1 mg/ml PAMAM-S—S-NAC. One of the thiol containing molecules (GSH, Cys or BSA) was added to the conjugates to form 10 mM, 2 mM, 0.5 mM 0.1 mM or 2 μM overall thiol group concentrations and to initiate the release of NAC. All samples were run as triplicates for statistical analysis.
As control samples, conjugates were analyzed in both release media in the absence of reducing agents. The solutions were kept at 37° C. and stirred continuously. At predetermined time intervals, […] of samples were withdrawn and immediately analyzed with RP-HPLC and the concentrations of analytes were determined by using appropriate calibrations prepared under same conditions.
Dendrimer NAC conjugates were analyzed for their drug release mechanism and kinetics in the presence of GSH, Cys and BSA. Buffer solutions with pH 5 (Citrate Buffer) and pH 7.4 (Phosphate Buffered Saline) containing various concentrations of these thiol containing moieties were used in release studies.
All GSH concentrations studied were between average plasma (2 μM) and intracellular (2-10 mM) GSH levels. Various GSH concentrations were used in order to determine the GSH dependent release kinetics of the conjugate. The conjugate solutions contained 730 μM NAC in the conjugated form (1 mg/ml PAMAM-S—S-NAC) at the beginning of the release studies. GSH concentration in the release media was compared to the conjugated NAC concentrations in the release solutions for analysis of the release kinetics and mechanism.
The release of NAC from the conjugates was investigated in the presence of GSH at intracellular and extracellular concentrations. It was assumed that the release of NAC would occur by the disulfide exchange reaction. GSH and its oxidized form (GSSG) are responsible for forming the intracellular redox buffer. Intracellularly, GSH takes the role of attacking thiolate moiety and gets oxidized in the process while cleaving the existing disulfide bonds.
as §1

[12] = as above; assay type: physicochemical; settings: absence of GSH, or GSH levels in the blood (20 μM)
Solubility in PBS/H2O = assay type: physicochemical
[13] = 10 mM GSH, PBS pH 7.4, within 1 hour

N[C@@H](CCC(=O)N[C@@H](CS)C(=O)NCC(=O)O)C(=O)O [GSH, glutathione]
pKa of thiol group [1]: ~8.8
converted to oxidized form [2]: 25%

CC(=O)N[C@@H](CS)C(=O)O [NAC, N-acetyl-L-cysteine, reference compound]
reduction of nitrite levels (BV-2 cells [3]): 30-40%
reduction of H2O2 levels (BV-2 cells [4]): 30-40%
biological half-life ([5]; in the blood stream): 1.5 hours
bioavailability ([5]; reduced by binding to plasma proteins): less than 8%
Nitrite reduction (%) (BV-2 cells [6]; 0.5 mM): 10.52 ± 6.43%
Nitrite reduction (%) (BV-2 cells [6]; 2 mM): 34.66 ± 3.22%
reduction of nitrite release (BV-2 cells [6]; 8 mM): ~70%
Nitrite reduction (%) (BV-2 cells [6]; 8 mM): 72.70 ± 5.56%
reduction in H2O2 levels (BV-2 cells [7]; 0.5 mM NAC (equivalent), 24 hours): 6%
reduction in H2O2 levels (BV-2 cells [7]; 0.5 mM NAC (equivalent), 72 hours): 7%
reduction in H2O2 levels (BV-2 cells [7]; 8 mM, 24 hours): 57%
reduction in H2O2 levels (BV-2 cells [7]; 8 mM, 72 hours): 125%
cytotoxicity [8]: no cytotoxicity
converted to oxidized form [2]: 25%
cytotoxicity (microglial cells): relatively nontoxic
H2O2 reduction (%) (BV-2 cells [9]; 0.5 mM): 5.54 ± 6.38%
H2O2 reduction (%) (BV-2 cells [9]; 2 mM): 22.28 ± 8.33%
H2O2 reduction (%) (BV-2 cells [9]; 8 mM): 41.31 ± 2.33%
effect on ROS production (BV-2 cells [9]): did not affect ROS production
TNF-α reduction (%) (BV-2 cells [10]; 0.5 mM): 34.98 ± 2.43%
TNF-α reduction (%) (BV-2 cells [10]; 2 mM): 35.13 ± 4.44%
TNF-α reduction (%) (BV-2 cells [10]; 8 mM): 44.57 ± 4.35%

PAMAM-CO-GS—S-NAC [PAMAM-(COOH)46-(NAC)18]
NAC payload in GS-S-NAC (NAC-GSH) form [11, 13]: 6%
NAC payload released in free form [11, 13]: 39%
total NAC release [11, 13]: 45%
NAC payload in GS-S-NAC form ([11]; 10 mM GSH, at 17 hours): 6%
free NAC content ([11]; 10 mM GSH, at 17 hours): 46%
NAC release ([11]; PBS buffer without GSH, 17 hours): did not release any of the NAC they carried
NAC payload found as GS-S-NAC or NAC-NAC ([11]; plasma GSH concentration (2 μM)): 1%
release of free NAC ([11]; plasma GSH concentration (2 μM), 17 hours): did not release any detectable levels of free NAC
reduction of nitrite release (BV-2 cells [6]; 0.5 mM NAC equivalent): ~61%
Nitrite reduction (%) (BV-2 cells [6]; 0.5 mM): ~60%
Nitrite reduction (%) (BV-2 cells [6]; 0.5 mM, listed as D-NAC): 60.82 ± 6.05%
Nitrite reduction (%) (BV-2 cells [6]; 2 mM): 64.85 ± 5.12%
Nitrite reduction (%) (BV-2 cells [6]; 8 mM): 75.75 ± 1.85%
free drug dosage with comparable activity relative to conjugate dose (8 mM vs 0.5 mM) (BV-2 cells [6]; lowest conjugate dose 0.5 mM NAC): 16 ×
drug release [12]: no drug release
Solubility in PBS/H2O (Solubility in PBS/H2O): Highly
cytotoxicity (microglial cells): relatively nontoxic; also recorded: non-toxic
H2O2 reduction (%) (BV-2 cells [9]; 0.5 mM): 25%
H2O2 reduction (%) (BV-2 cells [9]; 0.5 mM, listed as D-NAC): 30.81 ± 8.08%
H2O2 reduction (%) (BV-2 cells [9]; 2 mM): 51.13 ± 4.93%
H2O2 reduction (%) (BV-2 cells [9]; 8 mM): 68%
H2O2 reduction (%) (BV-2 cells [9]; 8 mM, listed as D-NAC): 68.75 ± 4.14%
effect on ROS production (BV-2 cells [9]): significant inhibition of ROS production at 2 mM and 8 mM
TNF-α reduction (%) (BV-2 cells [10]; 0.5 mM): ~67%
TNF-α reduction (%) (BV-2 cells [10]; 0.5 mM, listed as D-NAC): 67.46 ± 3.91%
TNF-α reduction (%) (BV-2 cells [10]; 2 mM): 74.43 ± 3.54%
TNF-α reduction (%) (BV-2 cells [10]; 8 mM): 77.37 ± 3.31%
